The results in this text go back to patent publication US11529324B2, “Use of Kv11.1 channel inhibitors for treatment of pulmonary hypertension” (Georgetown University, priority 2019, dated 2022).

The test system of series [1] is PAH-induced SD rats. Put plainly: Dofetilide treatment of SU5416/hypoxia PAH-induced and healthy SD rats, H&E lung histology and morphometric analysis (Example 5). The series is classed as in vivo, rat. The protocol: (§1) Male SD and Fischer rats were purchased from Charles River Laboratories International, Inc., (Wilmington, Mass., USA). To induce PAH, rats were subcutaneously injected with 20 mg/kg body weight SU5416 (inhibitor of vascular endothelial growth factor (VEGF) receptor Flk/1-KDR; MedChemExpress, Monmouth Junction, N.J., USA) and maintained in hypoxia^28-30. For hypoxia, animals were placed in a chamber (30″ w×20″ d×20″ h) regulated by an OxyCycler Oxygen Profile Controller (Model A84XOV; BioSpherix, Redfield, N.Y., USA) set to maintain 10% O2 with an influx of N2 gas, located in the animal care facility at the Georgetown University Medical Center. […] Animals were fed normal rat chow.
In a first experiment to determine the effects of a Kv11.1 inhibitor (dofetilide), SD rats were divided into 4 groups that were treated with (1) DMSO, (2) dofetilide, (3) DMSO+SU5416/Hypoxia, and (4) dofetilide+SU5416/Hypoxia, respectively (n=4 for each group). Dofetilide (10 mg/kg body weight) was dissolved in DMSO and injected intraperitoneally before the injection of SU5416. For histological examination, lung tissues were fixed in 10% formalin and embedded in paraffin. The Georgetown University Animal Care and Use Committee approved all animal experiments, and the investigation conformed to the National Institutes of Health Guide for the Care and Use of Laboratory Animals.
Paraffin-embedded tissues were cut and mounted on glass slides. Tissue sections were subjected to hematoxylin and eosin (H&E) stain and immunohistochemistry using anti-smooth muscle actin (anti-SMA) antibody (Abcam, Cambridge, UK) and Kv11.1 antibody (Alomone Labs, Jerusalem, Israel).
Lung slides were analyzed for pulmonary artery wall thickness. 30 vessels were analyzed per animal in each group, and four values of external and internal diameters for thickness were measured for each vessel. The wall thickness was calculated as difference of external and internal diameters by using Fiji software.
Means±SEM were calculated and then comparisons between two groups were analyzed using a two-tailed Student's t test, while comparisons between three or more groups were analyzed using ANOVA with a Student-Newman-Keuls post-hoc test. P<0.05 was considered to be significant.
To determine if pharmacological inhibition of Kv11.1 channels would affect PAH progression, healthy and PAH-induced SD rats were treated with Kv11.1 channel-specific blocker dofetilide. Lung tissues from four groups of SD rats (four rats in each group) were examined with H&E staining. […] PAH-induced rats in group (3) had increased intimal endothelial cell proliferation, increased SPAMWT, and reduced pulmonary arterial lumen diameter compared to control rats (FIGS. 6A and 6B).

Series [2] relates to PAH-induced SD rats. Briefly: Lower doses of dofetilide in SU5416/hypoxia PAH-induced and healthy SD rats, H&E lung histology (Example 6). The series is classed as in vivo, rat. As to the method:
as §1
In a second experiment to determine the effects of dofetilide, SD rats are divided into 4 groups that are treated with (1) DMSO, (2) dofetilide, (3) DMSO+SU5416/Hypoxia, and (4) dofetilide+SU5416/Hypoxia, respectively (n=4 for each group). Dofetilide (1000 μg/kg body weight) is dissolved in DMSO and injected intraperitoneally before the injection of SU5416. For histological examination, lung tissues are fixed in 10% formalin and embedded in paraffin.
In a third experiment to determine the effects of dofetilide, SD rats are divided into 4 groups that are treated with (1) DMSO, (2) dofetilide, (3) DMSO+SU5416/Hypoxia, and (4) dofetilide+SU5416/Hypoxia, respectively (n=4 for each group). Dofetilide (100 μg/kg body weight) is dissolved in DMSO and injected intraperitoneally before the injection of SU5416. For histological examination, lung tissues are fixed in 10% formalin and embedded in paraffin.
In a fourth experiment to determine the effects of dofetilide, SD rats are divided into 4 groups that are treated with (1) DMSO, (2) dofetilide, (3) DMSO+SU5416/Hypoxia, and (4) dofetilide+SU5416/Hypoxia, respectively (n=4 for each group). Dofetilide (10 μg/kg body weight) is dissolved in DMSO and injected intraperitoneally before the injection of SU5416. For histological examination, lung tissues are fixed in 10% formalin and embedded in paraffin.
To examine further if pharmacological inhibition of Kv11.1 channels would affect PAH progression, healthy and PAH-induced SD rats are treated with Kv11.1 channel-specific blocker dofetilide using lower doses (1 mg/kg, 0.1 mg/kg, 0.01 mg/kg, or 0.001 mg/kg) than was used in Example 5. Lung tissues from four groups of SD rats (four rats in each group) are examined with H&E staining. […] PAH-induced rats in Group (3) have increased intimal endothelial cell proliferation, increased SPAMWT, and reduced pulmonary arterial lumen diameter compared to control rats.

Where [3] appears, read: PAH-induced (SU5416/hypoxia) SD rats, dofetilide 10 mg/kg i.p. before SU5416, group (4) compared with PAH-induced group (3).
Where [4] appears, read: PAH-induced SD rats, dofetilide lower doses (1, 0.1, 0.01 or 0.001 mg/kg) i.p., Group (4) compared with Group (3).

As for `CN(CCOc1ccc(NS(C)(=O)=O)cc1)CCc1ccc(NS(C)(=O)=O)cc1` [dofetilide], the “pulmonary arterial lumen diameter” value in series [1] (setting [3]) and in series [2] (setting [4]) was “increased” throughout. Besides, the “small pulmonary arterial media wall thickness (SPAMWT)” value in series [1] (setting [3]) and in series [2] (setting [4]) was “reduced” in each case. Moreover, the “PAH-induced changes in SPAMWT” value in series [1] (dofetilide 10 mg/kg i.p., SPAMWT of PAH-induced dofetilide-treated group (4) statistically similar to control group (2)) is “completely eliminated”; in series [2] (dofetilide lower doses (1, 0.1, 0.01 or 0.001 mg/kg), SPAMWT of Group (4) statistically similar to control Group (2)), “completely eliminates”. Further, the “small pulmonary arterial media wall thickness (SPAMWT) in control rats” value is reported as “no statistical differences” in series [1] (healthy SD rats, dofetilide 10 mg/kg i.p. group (2) versus DMSO group (1), data not shown) and “no statistical differences” in series [2] (healthy SD rats, dofetilide lower doses Group (2) versus DMSO Group (1)).
